One series relates to L1210. Nature of the series: cells. The settings on record: Mus musculus.
The species entered for another series is Mus musculus. The settings on record: in vivo, im.

The text below walks through data of ChEMBL document CHEMBL1125073, “Antitubulin effects of derivatives of 3-demethylthiocolchicine, methylthio ethers of natural colchicinoids, and thioketones derived from thiocolchicine. Comparison with colchicinoids” (J Med Chem, 1990).

As a reminder, the IC50 is the concentration that gives 50% inhibition. A higher IC50 goes with weaker potency.

Description for L1210: In vitro cytotoxicity against L1210 (murine leukemia) cells.
Description for Mus musculus: Acute toxicity after intramuscular injection in mice.

As for `COc1c2c(cc3c1-c1ccc(SC)c(=O)cc1[C@@H](NC(C)=O)CC3)OCO2` [THIOCORNIGERINE], the concentration for half-maximal inhibition (IC50) in the series with L1210 amounted to 10 nM.
Same read-out and setting: the result for `COc1cc2c(c(OC)c1OC)-c1ccc(SC)c(=S)cc1[C@@H](NC(C)=O)CC2` reads 30 nM.
`COc1c2c(cc3c1-c1ccc(OC)c(=O)cc1[C@@H](NC(C)=O)CC3)OCO2` returned a Toxicity in the series filed under Mus musculus of 9.7 mg/kg.
The compound `COc1cc2c(c(OC)c1OC)-c1ccc(SC)c(=S)cc1[C@@H](/N=C(/C)S)CC2` registered a half-maximal inhibitory concentration (IC50) in the series on L1210 of 40 nM.
